Laboratory results published in patent US20240286998A1, “F[…], ANALOGUES THEREOF, AND METHODS USING SAME” (Saint Joseph's University, priority 2021, published 2024).

Test system: not given
Assay: not given
Conditions: not given

Row | SMILES | melting point
1 | CCCN(CC)CCc1c[nH]c2cc(F)c(F)cc12 [Example 9, N-(2-(5,6-difluoro-1H-indol-3-yl)ethyl)-N-ethylpropan-1-amine] | 83 to 86 °C
2 | CN1CCC(c2c[nH]c3cc(F)c(F)cc23)C1 (stereo not shown) [compound 19, 5,6-difluoro-3-(1-methylpyrrolidin-3-yl)-1H-indole] | 119.5 to 120.3 °C
3 | CN1CCC(c2c[nH]c3c(F)cccc23)C1 (stereo not shown) [compound 23, 7-fluoro-3-(1-methylpyrrolidin-3-yl)-1H-indole] | 129 to 132.1 °C
4 | CN1CCC[C@H]1Cc1c[nH]c2ccc(F)cc12 [compound 27, (S)-5-fluoro-3-((1-methylpyrrolidin-2-yl)methyl)-1H-indole] | 135 to 136.4 °C

Test system: C57BL/6J mice
Assay: Head-Twitch Response (HTR) in mice
Type: in vivo
Conditions: Mus musculus, ip, 0.5 h; read-out: HTR ED50 μmol/kg (95% CI)
Protocol: Male C57BL/6J mice (6-8 weeks old) were obtained from Jackson Laboratories (Bar Harbor, ME) and housed in a vivarium at the University of California San Diego, an AAALAC-approved animal facility that meets all federal and state requirements for care and treatment of laboratory animals. All animal experiments were carried out in accordance with NIH guidelines and were approved by the UCSD Institutional Animal Care and Use Committee. Mice were housed up to four per cage in a climate-controlled room on a reverse-light cycle (lights on at 1900 h, off at 0700 h). Animals were provided with ad libitum access to food and water, with the exception of during behavioral testing.
Testing was conducted between 1000 and 1800 h. Head movements were recorded using a head-mounted magnet and a magnetometer coil as described in Halberstadt et al. (Psychopharmacology, 2013, 227(4):727-739). For the head mounted magnet, mice were anesthetized, an incision was made in the scalp, and a neodymium magnet was attached to the dorsal surface of the cranium using dental cement. Following a 2-week recovery period, behavioral experiments were conducted in a well-lit room. At least 7 days occurred between sessions to avoid any carryover effects. Test substances (i.e., dimethyltryptamine (DMT), diethyltryptamine (DET), psilocybin, 6-fluoro-diethyltryptamine (6-F-DET), compounds 3-4, 6, 9, 12-13, 22, 33, 41, 69, 88, 166, and 178) were administered intraperitoneally (IP) at a volume of 5 mL/kg. Mice were treated with vehicle (saline) or 6 doses of the test compound and then placed in a glass cylinder surrounded by a magnetometer coil and tested for 30 min. Coil voltage was filtered (1 kHz lowpass), digitized (20 kHz sampling rate) and saved to disk using a Powerlab/8SP with LabChart v 7.3.2 (ADInstruments, Colorado Springs, CO).
The entire 30 min recordings were examined for head twitches. Established procedures based on artificial intelligence were used to identify head twitches in the recordings (Scientific Reports, 2020, 10(1):1-12). HTR counts were analyzed using one-way analyses of variance (ANOVA), followed by post hoc pairwise comparisons between individual groups and vehicle using Dunnett's multiple comparisons test. […] Median effective doses (ED50 values) and 95% confidence intervals (95% CI) were calculated using nonlinear regression (Prism 9.0.2, GraphPad Software, San Diego, CA) (Table 4 and FIGS. 1-3).

Row | SMILES | ED50
5 | CCCN(CC)CCc1c[nH]c2cc(F)c(F)cc12 [Example 9, N-(2-(5,6-difluoro-1H-indol-3-yl)ethyl)-N-ethylpropan-1-amine] | 3 µmol/kg

Same assay, conditions: Mus musculus, ip, 0.5 h; read-out: HTR ED50 mg/kg (95% CI)

Row | SMILES | ED50
6 | CCCN(CC)CCc1c[nH]c2cc(F)c(F)cc12 [Example 9, N-(2-(5,6-difluoro-1H-indol-3-yl)ethyl)-N-ethylpropan-1-amine] | 0.91 mg/kg

Same assay, conditions: compared to vehicle

Row | SMILES | HTR counts over baseline / induction of HTR
7 | CCCN(CC)CCc1c[nH]c2cc(F)c(F)cc12 [Example 9, N-(2-(5,6-difluoro-1H-indol-3-yl)ethyl)-N-ethylpropan-1-amine] | significant increase

Molecular target: 5-HT1A (Homo sapiens (Human), UniProt P08908)
Assay: 5-HT1A Gi/o-mediated cAMP inhibition, GloSensor assay
Type: cell-based
Conditions: not given

Row | SMILES | EC50
8 | CCCN(CC)CCc1c[nH]c2cc(F)c(F)cc12 [Example 9, N-(2-(5,6-difluoro-1H-indol-3-yl)ethyl)-N-ethylpropan-1-amine] | 229 nM
9 | CN1CCC(c2c[nH]c3cc(F)c(F)cc23)C1 (stereo not shown) [compound 19, 5,6-difluoro-3-(1-methylpyrrolidin-3-yl)-1H-indole] | 2950 nM
10 | CN1CCC(c2c[nH]c3c(F)cccc23)C1 (stereo not shown) [compound 23, 7-fluoro-3-(1-methylpyrrolidin-3-yl)-1H-indole] | 22.4 nM
11 | CN1CCC[C@H]1Cc1c[nH]c2ccc(F)cc12 [compound 27, (S)-5-fluoro-3-((1-methylpyrrolidin-2-yl)methyl)-1H-indole] | 562 nM

Same assay, conditions: cAMP inhibition, 0.2 μM isoproterenol; IA = Inactive

Row | SMILES | 5-HT1A-cAMP Emax (% 5-HT)
12 | CCCN(CC)CCc1c[nH]c2cc(F)c(F)cc12 [Example 9, N-(2-(5,6-difluoro-1H-indol-3-yl)ethyl)-N-ethylpropan-1-amine] | 89.1 ± 2.9 % 5-HT
13 | CN1CCC(c2c[nH]c3cc(F)c(F)cc23)C1 (stereo not shown) [compound 19, 5,6-difluoro-3-(1-methylpyrrolidin-3-yl)-1H-indole] | 113.3 ± 4.0 % 5-HT
14 | CN1CCC(c2c[nH]c3c(F)cccc23)C1 (stereo not shown) [compound 23, 7-fluoro-3-(1-methylpyrrolidin-3-yl)-1H-indole] | 99.2 ± 1.7 % 5-HT
15 | CN1CCC[C@H]1Cc1c[nH]c2ccc(F)cc12 [compound 27, (S)-5-fluoro-3-((1-methylpyrrolidin-2-yl)methyl)-1H-indole] | 88.2 ± 3.6 % 5-HT

Molecular target: 5-HT2C (Homo sapiens (Human), UniProt P28335)
Assay: 5-HT2C Gq-mediated calcium flux functional assay
Type: cell-based
Conditions: not given

5-HT2C, sequence (P28335 whole entry, looked up): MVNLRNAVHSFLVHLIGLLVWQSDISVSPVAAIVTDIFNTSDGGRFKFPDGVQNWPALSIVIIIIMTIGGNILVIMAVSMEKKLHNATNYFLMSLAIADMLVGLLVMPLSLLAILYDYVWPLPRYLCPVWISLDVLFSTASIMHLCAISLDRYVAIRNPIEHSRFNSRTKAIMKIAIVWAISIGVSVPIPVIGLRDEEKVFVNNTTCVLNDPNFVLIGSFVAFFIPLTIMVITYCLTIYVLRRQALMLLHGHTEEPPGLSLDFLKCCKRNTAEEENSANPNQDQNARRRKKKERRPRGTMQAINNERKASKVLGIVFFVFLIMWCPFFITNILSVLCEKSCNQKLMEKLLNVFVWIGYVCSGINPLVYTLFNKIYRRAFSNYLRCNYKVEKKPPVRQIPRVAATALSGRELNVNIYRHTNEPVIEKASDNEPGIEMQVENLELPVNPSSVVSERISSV

Row | SMILES | EC50
16 | CCCN(CC)CCc1c[nH]c2cc(F)c(F)cc12 [Example 9, N-(2-(5,6-difluoro-1H-indol-3-yl)ethyl)-N-ethylpropan-1-amine] | 19.1 nM
17 | CN1CCC[C@H]1Cc1c[nH]c2ccc(F)cc12 [compound 27, (S)-5-fluoro-3-((1-methylpyrrolidin-2-yl)methyl)-1H-indole] | 56.2 nM

Same assay, conditions: IA = Inactive; N=1-3

Row | SMILES | 5-HT2C-Ca2+ FLUX Emax (% 5-HT)
18 | CCCN(CC)CCc1c[nH]c2cc(F)c(F)cc12 [Example 9, N-(2-(5,6-difluoro-1H-indol-3-yl)ethyl)-N-ethylpropan-1-amine] | 100.7 ± 3.0 % 5-HT
19 | CN1CCC(c2c[nH]c3cc(F)c(F)cc23)C1 (stereo not shown) [compound 19, 5,6-difluoro-3-(1-methylpyrrolidin-3-yl)-1H-indole] | 70.5 ± 2.3 % 5-HT
20 | CN1CCC(c2c[nH]c3c(F)cccc23)C1 (stereo not shown) [compound 23, 7-fluoro-3-(1-methylpyrrolidin-3-yl)-1H-indole] | 26.6 ± 1.1 % 5-HT
21 | CN1CCC[C@H]1Cc1c[nH]c2ccc(F)cc12 [compound 27, (S)-5-fluoro-3-((1-methylpyrrolidin-2-yl)methyl)-1H-indole] | 18.5 ± 0.7 % 5-HT

Same assay, conditions: IA = Inactive; N=1-3; read-out: 5-HT2C-Ca2+ FLUX pEC50 (converted)

Row | SMILES | EC50
22 | CN1CCC(c2c[nH]c3cc(F)c(F)cc23)C1 (stereo not shown) [compound 19, 5,6-difluoro-3-(1-methylpyrrolidin-3-yl)-1H-indole] | 3.63 nM
23 | CN1CCC(c2c[nH]c3c(F)cccc23)C1 (stereo not shown) [compound 23, 7-fluoro-3-(1-methylpyrrolidin-3-yl)-1H-indole] | 20.9 nM

Molecular target: 5-HT2A (Homo sapiens (Human), UniProt P28223)
Assay: 5-HT2A Gq-mediated calcium flux functional assay
Type: cell-based
Conditions: not given

Row | SMILES | EC50
24 | CCCN(CC)CCc1c[nH]c2cc(F)c(F)cc12 [Example 9, N-(2-(5,6-difluoro-1H-indol-3-yl)ethyl)-N-ethylpropan-1-amine] | 1.02 nM
25 | CN1CCC[C@H]1Cc1c[nH]c2ccc(F)cc12 [compound 27, (S)-5-fluoro-3-((1-methylpyrrolidin-2-yl)methyl)-1H-indole] | 58.9 nM

Same assay, conditions: IA = Inactive; N=1-3

Row | SMILES | 5-HT2A-Ca2+ FLUX Emax (% 5-HT)
26 | CCCN(CC)CCc1c[nH]c2cc(F)c(F)cc12 [Example 9, N-(2-(5,6-difluoro-1H-indol-3-yl)ethyl)-N-ethylpropan-1-amine] | 105.7 ± 1.9 % 5-HT
27 | CN1CCC(c2c[nH]c3cc(F)c(F)cc23)C1 (stereo not shown) [compound 19, 5,6-difluoro-3-(1-methylpyrrolidin-3-yl)-1H-indole] | 53.3 ± 3.6 % 5-HT
28 | CN1CCC(c2c[nH]c3c(F)cccc23)C1 (stereo not shown) [compound 23, 7-fluoro-3-(1-methylpyrrolidin-3-yl)-1H-indole] | 41.8 ± 1.6 % 5-HT
29 | CN1CCC[C@H]1Cc1c[nH]c2ccc(F)cc12 [compound 27, (S)-5-fluoro-3-((1-methylpyrrolidin-2-yl)methyl)-1H-indole] | 34.4 ± 2.3 % 5-HT

Same assay, conditions: IA = Inactive; N=1-3; read-out: 5-HT2A-Ca2+ FLUX pEC50 (converted)

Row | SMILES | EC50
30 | CN1CCC(c2c[nH]c3cc(F)c(F)cc23)C1 (stereo not shown) [compound 19, 5,6-difluoro-3-(1-methylpyrrolidin-3-yl)-1H-indole] | 3.89 nM
31 | CN1CCC(c2c[nH]c3c(F)cccc23)C1 (stereo not shown) [compound 23, 7-fluoro-3-(1-methylpyrrolidin-3-yl)-1H-indole] | 8.51 nM

Molecular target: Serotonin 5-HT2A (human) (Homo sapiens (Human), UniProt P28223)
Assay: 5-HT2A receptor binding, [3H]-ketanserin competition in membrane fractions
Conditions: 1 nM [3H]-ketanserin, Cheng-Prusoff, N=1-3

Row | SMILES | 5-HT2A pKi ± SEM
32 | CCCN(CC)CCc1c[nH]c2cc(F)c(F)cc12 [Example 9, N-(2-(5,6-difluoro-1H-indol-3-yl)ethyl)-N-ethylpropan-1-amine] | 6.15 ± 0.21
33 | CN1CCC(c2c[nH]c3cc(F)c(F)cc23)C1 (stereo not shown) [compound 19, 5,6-difluoro-3-(1-methylpyrrolidin-3-yl)-1H-indole] | 6.92
34 | CN1CCC(c2c[nH]c3c(F)cccc23)C1 (stereo not shown) [compound 23, 7-fluoro-3-(1-methylpyrrolidin-3-yl)-1H-indole] | 6.43
35 | CN1CCC[C@H]1Cc1c[nH]c2ccc(F)cc12 [compound 27, (S)-5-fluoro-3-((1-methylpyrrolidin-2-yl)methyl)-1H-indole] | 5.57

Molecular target: 5-HT2B (Homo sapiens (Human), UniProt P41595)
Assay: 5-HT2B Gq-mediated calcium flux functional assay
Type: cell-based
Conditions: not given

5-HT2B, sequence (P41595 whole entry): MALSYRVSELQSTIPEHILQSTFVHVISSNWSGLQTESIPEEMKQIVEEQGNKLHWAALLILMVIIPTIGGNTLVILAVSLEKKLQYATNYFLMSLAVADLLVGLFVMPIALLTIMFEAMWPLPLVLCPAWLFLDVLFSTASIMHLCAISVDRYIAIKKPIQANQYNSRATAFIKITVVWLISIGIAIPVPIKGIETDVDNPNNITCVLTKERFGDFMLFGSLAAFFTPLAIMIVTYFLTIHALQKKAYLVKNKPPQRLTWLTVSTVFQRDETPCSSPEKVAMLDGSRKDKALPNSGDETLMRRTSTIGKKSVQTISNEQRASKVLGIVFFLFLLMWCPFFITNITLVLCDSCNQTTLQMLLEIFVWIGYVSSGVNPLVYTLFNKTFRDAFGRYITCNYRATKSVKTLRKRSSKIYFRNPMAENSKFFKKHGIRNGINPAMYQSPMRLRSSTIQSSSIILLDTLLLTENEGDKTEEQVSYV

Row | SMILES | EC50
36 | CCCN(CC)CCc1c[nH]c2cc(F)c(F)cc12 [Example 9, N-(2-(5,6-difluoro-1H-indol-3-yl)ethyl)-N-ethylpropan-1-amine] | 1.7 nM
37 | CN1CCC[C@H]1Cc1c[nH]c2ccc(F)cc12 [compound 27, (S)-5-fluoro-3-((1-methylpyrrolidin-2-yl)methyl)-1H-indole] | 14.1 nM

Same assay, conditions: IA = Inactive; N=1-3

Row | SMILES | 5-HT2B-Ca2+ FLUX Emax (% 5-HT)
38 | CCCN(CC)CCc1c[nH]c2cc(F)c(F)cc12 [Example 9, N-(2-(5,6-difluoro-1H-indol-3-yl)ethyl)-N-ethylpropan-1-amine] | 96.6 ± 2.0 % 5-HT
39 | CN1CCC(c2c[nH]c3cc(F)c(F)cc23)C1 (stereo not shown) [compound 19, 5,6-difluoro-3-(1-methylpyrrolidin-3-yl)-1H-indole] | 32.2 ± 2.2 % 5-HT
40 | CN1CCC(c2c[nH]c3c(F)cccc23)C1 (stereo not shown) [compound 23, 7-fluoro-3-(1-methylpyrrolidin-3-yl)-1H-indole] | 19.7 ± 0.8 % 5-HT
41 | CN1CCC[C@H]1Cc1c[nH]c2ccc(F)cc12 [compound 27, (S)-5-fluoro-3-((1-methylpyrrolidin-2-yl)methyl)-1H-indole] | 35.3 ± 1.3 % 5-HT

Same assay, conditions: IA = Inactive; N=1-3; read-out: 5-HT2B-Ca2+ FLUX pEC50 (converted)

Row | SMILES | EC50
42 | CN1CCC(c2c[nH]c3cc(F)c(F)cc23)C1 (stereo not shown) [compound 19, 5,6-difluoro-3-(1-methylpyrrolidin-3-yl)-1H-indole] | 1.51 nM
43 | CN1CCC(c2c[nH]c3c(F)cccc23)C1 (stereo not shown) [compound 23, 7-fluoro-3-(1-methylpyrrolidin-3-yl)-1H-indole] | 4.37 nM
